The subject of this test is phospholipase D. Description: Substrate specificity of phospholipase D (choline release, choline oxidase/peroxidase colorimetry at 500 nm). Type of test: biochemical, Streptomyces chromofuscus. To be noted: substrate emulsion 10 mM, 0.1 ml; 37°C, 10 minutes, pH 8.0; relative to activity on lysolecithin as 100. How it is done:
To the reaction mixture having a composition as above was added 0.05 ml of the enzyme solution. After reaction it 37°C for 10 minutes, the mixture was boiled for 5 minutes to stop the reaction. The reaction solution was cooled to 37°C. Then, 0.1 ml of 4-aminoantipyrine (3 mg/ml), 0.1 ml of Phenol (2 mg/ml), 0.1 ml of peroxidase (2 U/ml), 0.1 ml of choline oxidase (30 U/ml) and 0.1 ml of water were added to the solution, the reaction was conducted at 37°C for 20 minutes before adding 2 ml of 1% Triton X100 to the reaction mixture for measuring the absorbance at 500 nm. It is defined that 1 Unit (U) of phospholipase D has an enzyme activity of producing 1 […] of choline. The enzyme activity is calculated from the following equation: U/ml = ΔA₅₀₀ x 0.55 [formula] wherein ΔA₅₀₀ denotes the absorbance at 500 nm.
The same procedure as described above for the reaction solution for the measurement of the activity was repeated except that emulsions (10 mM, 0.1 ml) of lecithin, lysolecithin and sphingomyelin, respectively, as substrates were used. The amount of choline was determined, and the relative enzyme activities are calculated in terms of the enzyme activity to lysolecithin as 100.
Regarding Lysolecithin, the “Relative Activity” value stood at 100%.
For the substance Sphingomyelin, the “Relative Activity” value is 19%.
phosphatidylcholine [Lecithin]: the “Relative Activity” value worked out at 51%.

These data come from patent EP0435725B1, “DNA having the genetic information of phospholipase D and its use” (Asahi Kasei Kogyo Kabushiki Kaisha, priority 1989, dated 1991).
